# Key:
# [1] = Particle size, PDI and Zeta potential of lipid compound nanoparticles (DLS); type: physicochemical; conditions: LNP with pDNA-GFP-Luc, lipid compound:Cholesterol:DOPE:DSPE-PEG=40:48:10:2, N/P 24:1, pH=5.3
# Protocol: Lipid compounds 3-2-C8, 3-3-C8, 3-4-C8, 3-5-C8, 10-2-C8, 10-3-C8, 10-4-C8 and 10-5-C8 were used as nanocarrier materials to encapsulate pDNA-GFP-Luc to test the particle size (Size), polymer dispersion index (PDI) and Zeta potential of the lipid nanoparticles.
# Ionizable lipids 3-2-C8, 3-3-C8, 3-4-C8, 3-5-C8, 10-2-C8, 10-3-C8, 10-4-C8, 10-5-C8 and dioleoyl phosphatidyl ethanolamine (DOPE), cholesterol, distearoylphosphatidylacetamide-polyethylene glycol (DSPE-PEG) were dissolved in anhydrous ethanol at a certain concentration, the components were uniformly mixed according to a certain molar ratio of lipid compound:Cholesterol:DOPE:DSPE-PEG=40:48:10:2, at the same time, a proper amount of pDNA-GFP-Luc was dissolved in sodium acetate buffer (the volume of sodium acetate buffer was twice the total volume of lipid mixture, pH=5.3), and the pDNA-GFP-Luc dissolved in the buffer was taken into the lipid mixture solution, and quickly mixed to assemble into lipid nanoparticles, the mixed solution was incubated at room temperature for 15 min, and the particle size and potential were tested by dynamic light scattering instrument (DLS). The nitrogen-phosphorus ratio (N/P ratio) of ionizable lipid to pDNA (24:1) was the optimal ratio, that is, the molar ratio between the protonated amino group on the ionized lipid and the phosphate group on the DNA. 2) Analysis of experimental results:
# FIG. 11 is the particle size test diagram of nanoparticles prepared by lipid compounds. Table 2 is the Zeta potential test results of nanoparticles prepared by lipid compounds.
# The charge is 13.0±1.56-28.7±4.36 mV, which is consistent with the characteristics of lipid nanoparticles, the smaller particle sizes can exert the high permeability and long retention effect (EPR), leading to better accumulation in the tumor sites.
# [2] = In vivo RNA imaging (IVIS) of repRNA-Luc delivery after intramuscular injection; set-up: species or system C57BL/6 mice; conditions: for repRNA-Luc expression by IVIS: 3rd day after intramuscular injection, 150 ng repRNA-Luc, DSPC LNP; for course of expression values with time (IVIS total flux): after intramuscular injection of repRNA-Luc LNP
# Description: Ionizable lipid compounds 3-4-C8, 3-5-C8, 10-4-C8, 10-5-C8, and 11-4-C8 were used to deliver self-amplifying RNA (Rep RNA-Luc) encoding firefly luciferase (Luc) in C57BL/6 mice. After intramuscular injection in mice, the in vivo imaging system (IVIS) was used to detect on the 3rd, 5th, and 7th day after injection.
# 1) The specific steps are the same with the lipid compound delivering RNA test in performance test 3, the difference in this performance test, the experimental group: ionizable lipid compounds 3-4-C8, 3-5-C8, 10-4-C8, 10-5-C8 or 11-4-C8 and distearoyl phosphatidylcholine (DSPC), cholesterol (Cholesterol), distearoyl phosphatidylacetamide-polyethylene glycol (DSPE-PEG) or blank group are dissolved in anhydrous and non-enzymatic ethanol according to a certain concentration, the use of the ratio is ionizable lipid compounds 3-4-C8, 8-4-C8, 10-4-C8 or 11-4-C8:Cholesterol:DSPC:DSPE-PEG=40:48:10:2. A proper amount of repRNA-Luc was dissolved in sodium acetate buffer (the volume of sodium acetate buffer was twice the total volume of the lipid mixture, pH=5.3), the repRNA-Luc dissolved in the buffer was added into the lipid mixture solution and quickly mixed to assemble into lipid nanoparticles, the mixed solution was incubated at room temperature for 15 min, and then dialyzed in ultrapure water for 0.5 h using a dialysis bag (14000 MW), finally, 10% glucose solution was added to the lipid nanoparticle solution to adjust the osmotic pressure for intramuscular injection (LNP containing 150 ng of repRNA-Luc in each dose). Among them, the N/P ratio of ionizable lipid to mRNA (N/P ratio) is 24:1, which is the optimal ratio, that is, the molar ratio between the protonated amino group on the ionizable lipid and the phosphate group on the DNA.
# FIG. 18 is the detection map of the in vivo imaging system for lipid nanoparticles injected into mice. FIG. 19 is an injection time and total flux of the lipid compound.
Zeta potential [1],SMILES,repRNA-Luc expression by IVIS [2],course of expression values with time (IVIS total flux) [2]
20.7 ± 2.77 mV,CCCCCCCCC(CCCCCCCC)OC(=O)NCCOC(=O)CCN(CCC(=O)OCCNC(=O)OC(CCCCCCCC)CCCCCCCC)CCN(C)C [10-2-C8],–,–
13.0 ± 1.56 mV,CCCCCCCCC(CCCCCCCC)OC(=O)NCCOC(=O)CCN(CCC(=O)OCCNC(=O)OC(CCCCCCCC)CCCCCCCC)CCN1CCCC1 [3-2-C8],–,–
23.5 ± 4.87 mV,CCCCCCCCC(CCCCCCCC)OC(=O)NCCCCOC(=O)CCN(CCC(=O)OCCCCNC(=O)OC(CCCCCCCC)CCCCCCCC)CCN(C)C [10-4-C8],successfully expressed,increased with time
20.2 ± 3.07 mV,CCCCCCCCC(CCCCCCCC)OC(=O)NCCCCOC(=O)CCN(CCC(=O)OCCCCNC(=O)OC(CCCCCCCC)CCCCCCCC)CCN1CCCC1 [3-4-C8],successfully expressed,increased with time

# From US20250090462A1, “LIPID COMPOUND AND PREPARATION METHOD THEREFOR, AND USE THEREOF” (South China University of Technology, priority 2022, published 2025)
